Test results reported in patent US12281077B2, “Solid forms of n-tert-butyl-4[[2-(5-chloro-2-hydroxy-phenyl)acetyl]amino]pyridine-2-carboxamide” (TMEM16A LIMITED, priority 2019, dated 2025).
Entries after “also recorded” stand apart in the source; their conditions may differ. Like-named read-outs stand apart in the source and are kept apart here.

How the values were obtained:
Type in all cases: physicochemical
[1] = Competitive suspension equilibrations in acetonitrile; details: acetonitrile (20 vol)
Source text: Form A of Compound 1 and the appropriate other form(s) of Compound 1 were suspended in acetonitrile (20 vol). […] When completed, the products were isolated, oven dried and analysed by XRPD.

[2] = Compaction of Forms B(I) and B(II) (ca 10 tonnes)
Source text: Assuming that the inconsistencies between the dehydration behaviours of the two batches were attributed to different locations and bindings of their water occupancies, both were examined after 10 tonne compaction, to determine if their dehydration features were conserved or altered after the application of equal pressure treatments.
A finely divided specimen of Form B(II) was applied evenly to the smooth surface of the lower sample anvil that was located inside the compression cell apparatus. A second smoothed face anvil was placed above the first and the sample was pressed into place using finger pressure. The sealed sample cell was then evacuated under house vacuum pressure for at least 5 minutes. An axial load of ca 10 metric tonnes was applied to the upper anvil and the specimen was maintained under a state of unilateral compression for at least 15 minutes. After which time, the apparatus was dismantled and the product was retrieved from the sample holder and analysed to determine if any phase modifications had taken place.

[3] = Thermocycling of Form A, Form B(I) and Form B(II) in purified water; details: purified water (10 vol), −10 to +10° C., ±0.5° C./minute, 75 h
Protocol: Samples of Compound 1, Form A, Form B(I) and Form B(II) were charged to separate Crystal 16 blank, glass vials and purified water (1 ml, 10.0 vol) was added each vial. Each vial underwent thermocycling from −10 to +10° C. at a ramp rate of ±0.5° C./minute, over 75 h.

[4] = Suspension equilibration of Form B(II) in acetonitrile/water
Protocol: To further investigate the stability hierarchy of Form B (I) and Form B (II), an equal portion of both Form B (I) and Form B (II) were competitively slurry ripened in 4 to 1 MeCN/Water (w/w) for 3 days.
One portion of Form B(II) (1.06 g) was charged with 4 to 1 v/v acetonitrile/water (15 vol, 15 ml). This was stirred at room temperature with a flow of nitrogen. The mixture was subsampled at t=4 h and t=23 h. The subsamples were centrifuged down (13400 rpm for 15 min), supernatants were removed and dried overnight in oven at 40° C. under reduced pressure.

[5] = Suspension equilibration of Form B(II) in purified water; details: room temperature
Protocol: One portion of Form B(II) (1.0 g) was charged with purified water (15 vol, 15 ml). This was stirred at room temperature with a flow of nitrogen for 20 h. The mixture was subsampled at t=2 h and t=20 h. The subsampled mixture was centrifuged down (13400 rpm for 15 min) and supernatant was removed. The remaining solid was dried (at t=3 days) in the oven under reduced pressure at 40° C. overnight. The dried white solid (A0903-184-C1, 0.84 g, 83% yield not corr.). The result for the sample at 3 days are not shown as these are the same as the subsample taken at 20 hours.

[6] = Suspension equilibration of Form B in anhydrous acetonitrile; details: room temperature
Protocol: One portion of Form B(II) (1.01 g) was charged with anhydrous acetonitrile (15 vol, 15 ml).
This was stirred at room temperature with a flow of nitrogen. The mixture IPC was subsampled at t=3 h and t=23 h. The subsampled mixtures were centrifuged down (13400 rpm for 15 min), supernatants were removed and dried overnight in oven at 40° C. under reduced pressure. The remaining solid was dried (t=2 days) in oven overnight under reduced pressure at 40° C. overnight. The dried white solid (0.54 g, 54% yield not corr.) was analysed by XRPD and DSC.
A similar procedure was carried out for a portion of Form B(I) (1.06 g). Int his case, the mixture was subsampled at t=5 h and isolation was carried out at t=5 days. The uncorrected yield was 66%.

[7] = Thermocycling of Form B(I) in buffered aqueous suspensions (Form A control); details: −10° C. to +40° C.
Protocol: Form B(I) was prepared in the relevant formulation under sterile conditions. The samples were thermocycled for approximately 202 complete cycles. Off-line analyses of the suspensions were performed by polarised light microscopy and end point sampling was performed on the isolated solid pellets of the suspensions after centrifugation. The thermocycling incorporated a wide temperature range (−10° C. to +40° C.). A parallel study was performed using micronised Form A as control.
In all cases, the suspension volume was 2 ml and thermocycling was carried out over a temperature range −10° C. to +40° C. at a rate of change of 1° C./min for a duration of 336 hours (14 days) and […] cycles.
At daily intervals, a droplet from each thermocycle suspension was withdrawn, placed on a microscope slide and photographed. After 14 days constant thermocycling, the suspensions were filtered, isolable solids were oven dried and analysed for evidence of form change and change in chemical purity.

[8] = Dynamic vapour sorption (DVS) of Form A
Protocol: The moisture sorption properties of the feed API were analysed by DVS (DVS Intrinsic,
Surface Measurement System). Approximately 50 mg of API was weighed into an aluminium pan and loaded into the instrument at 25° C. The sample was allowed to equilibrate under dry atmosphere (0% relative humidity) for 1 hour before increasing the humidity from 0% to 30% at 5% step increment and from 30% to 90% at 10% step increment. A desorption cycle was also applied from 90% to 30% (10% step) and from 30% to 0% (5% step). A rate of change by time was set as the equilibrium parameter (1 hour each step). Kinetic and isotherm graphs were calculated.

[9] = Aqueous surfactant equilibration of Form A: conversion into Form B monitored by XRPD
Protocol: A sample of Form A was micronised using an AS100 spiral jet mill (Alpine) with a ZD9 screw dosing system at a milling gas pressure of 5.0 bar (18° C.) and an injection gas pressure of 6.0 bar (18° C.). Feed rate was 350 g/hr.
Form A and micronised Form A were added to purified water containing the surfactants shown in Table 6, and the mixtures were stirred at 20° C.
Sub samples (300 to 500 μl) were withdrawn at the appropriate time points. The mixtures were centrifuged, the clarified supernatant was decanted, and the pellet was oven dried (20° C., 24 h) and analysed by XRPD. […] The time taken for complete conversion of Form A into Form B was concluded when Form A was no longer detectable by XRPD.
A micelle is an aggregate of surfactant molecules dispersed in a liquid colloid. Micelles form only when the concentration of surfactant is greater than the critical micelle concentration (CMC). • Surf 1: TWEEN® 80 (polysorbate 80; polyoxyethylene sorbitan monooleate) Critical Micellar Concentration (CMC) 13-15 mg/litre [actual concentration used=1 mg/ml, 1000 mg/litre>CMC] • Surf 2: TWEEN® 20 (polysorbate 20; polyethylene glycol sorbitan monolaurate) 20 Critical Micellar Concentration (CMC) ca 61 mg/litre [actual concentration used=0.5 mg/ml, 500 mg/litre>CMC] • Surf 3: SPAN® 20 (sorbitan monolaurate) no CMC in water, too hydrophobic and yet still exerted an inhibitory effect on the form conversion • Surf 4: TWEEN® 80 Critical Micellar Concentration (CMC) 13-15 mg/litre [actual concentration used=0.01 mg/ml, 10 mg/litre<CMC] • TWEEN® surfactants are soluble in water and SPAN® surfactants are oil soluble and not able to form micelles in water.

[10] = Suspension equilibrations of Form A (Example 7)
Protocol: Compound 1 Form A, (ca 50 mg, 1.0 wt) and the appropriate solvent (1000 μl, 20 vol) were charged to separate vessels and stirred for 7 days at 20° C. After this time the products were cooled, isolated by filtration, washed with recycled maturation solvent, dried under reduced pressure at 40° C. and analysed by XRPD for evidence of alternative crystalline forms.
Separate portions of Compound 1, Form A (ca 50 mg, 1.0 wt.), and the appropriate solvent (1000 μl, 20 vol.) were charged to separate vessels and stirred for 7 days at 40° C. After this time, the products were cooled, isolated by filtration, washed with recycled maturation solvent, dried under reduced pressure at 40° C. and analysed by XRPD for evidence of alternative crystalline forms. N.B. water was also included in this screen. • All of the products corresponded to Form A, except the product isolated from tBME (Form D), and from THF (Form G; see FIG. 18). […] C. Aqueous Suspension Equilibrations of Form A at 20° C.
Separate portions of Compound 1, Form A (ca 50 mg, 1.0 wt.), and the appropriate solvent (950 μl, 19 vol) and purified water (50 μl, 1.0 vol) were charged to separate vessels and stirred for 7 to 10 days at 20° C. […] Form C is an anhydrous form, and sometimes occurs in the presence of aromatic solvents (toluene and trifluorotoluene).

[11] = citrate buffered surfactant suspensions, 1° C./min, 14 days
[12] = micronised (particle size 2 μm), 20° C., with or without surfactant

## CC(C)(C)NC(=O)c1cc(NC(=O)Cc2cc(Cl)ccc2O)ccn1 [Form A + Form D (1/1 w/w)]
[1]; 40 ° C., stirred 7 days
  Output form (XRPD): Form A

## CC(C)(C)NC(=O)c1cc(NC(=O)Cc2cc(Cl)ccc2O)ccn1 [Form B(II), N-tert-Butyl-4-[[2-(5-chloro-2-hydroxy-phenyl)acetyl]amino]pyridine-2-carboxamide]
[2]
  degree of crystallinity by XRPD before compression: 87.2%
  form after 10 tonne compaction (DSC): converted to Form B(I)
[2]; ca 10 metric tonnes
  degree of crystallinity by XRPD after compression: 80.3%
[2]; listed as Form B (II)
  form after 10 tonne compaction (DSC): Form B (I) emerged
[3]
  form change by XRPD and DSC after thermocycling: almost all converted to the unimodal event
[4]; room temperature, t=4 h and t=23 h
  form after stirring in 4 to 1 v/v acetonitrile/water (DSC, XRPD): production of Form B(I); also recorded: converted to Form B(I)
[5]; 2 hours
  form after suspension equilibration in purified water (DSC): only the unimodal event was observed; also recorded: converted to Form B(I)
[5]; 20 hours and three days
  form after suspension equilibration in purified water (DSC): converted to Form B(I)
[6]; 3 hours, 23 hours and 3 days substantially the same
  form after suspension equilibration in anhydrous acetonitrile (XRPD): rapidly converted to Form A

## CC(C)(C)NC(=O)c1cc(NC(=O)Cc2cc(Cl)ccc2O)ccn1 [Form B(I), N-tert-Butyl-4-[[2-(5-chloro-2-hydroxy-phenyl)acetyl]amino]pyridine-2-carboxamide]
[2]
  form after 10 tonne compaction (DSC): unchanged
[3]
  form change by XRPD and DSC after thermocycling: unchanged
[6]; 5 hours, 5 days similar
  form after suspension equilibration in anhydrous acetonitrile (XRPD): rapidly converted to Form A
[7]; [11]
  form stability to constant thermocycling (XRPD, DSC, TGA, microscopy): stable

## CC(C)(C)NC(=O)c1cc(NC(=O)Cc2cc(Cl)ccc2O)ccn1 [Form A, N-tert-Butyl-4-[[2-(5-chloro-2-hydroxy-phenyl)acetyl]amino]pyridine-2-carboxamide]
[8]
  hydrate formation, XRPD repeated after the DVS test: no hydrate was formed
  hygroscopicity / moisture affinity by DVS: not hygroscopic
[8]; 90% relative humidity (RH), 25° C.
  change in mass (uptake of water) by DVS: 0.02%
[9]; 20 to 40° C. storage conditions
  storage stability of Form A in pre-made composition (surfactant present): 120 h
[9]; 24 hour time point
  Form B in aqueous suspension of Form A: no Form B can be detected
[9]; after 8 days
  form present in aqueous suspension of Form A: substantially all of the Compound 1 was present as the Form B hydrate crystalline form
[9]; [12]
  time after which micronised Form A had almost completely converted into Form B: 146 h
  time after which micronised Form A had started to convert to Form B: 48 h
[1]; 40 ° C., stirred 7 days
  Output form (XRPD): Form A
[3]
  form change by XRPD and DSC after thermocycling: did not change
[7]; citrate buffered Tween® 20/Span® 22, 14 days, 1° C./min
  form after thermocycling (XRPD): converted to Form B
[7]; citrate buffered Tween® 80, 14 days, 1° C./min
  form after thermocycling (XRPD): converted to Form B
[7]; citrate buffered surfactant suspensions, 1° C./min
  time point of first morphological change (polarised light microscopy): eight day
[7]; [11]
  form stability to constant thermocycling (XRPD, DSC, TGA, microscopy): changed into Form B(I)
[7]; 14 days, accompanying the form change
  chemical purity after thermocycling: No reduction in chemical purity
[10]; 20° C., 7 to 10 days
  form after suspension equilibration in purified water only (XRPD): partial conversion into Form B
[10]; 40° C., 7 days
  form after suspension equilibration in purified water (XRPD): Form A, no Form B was evident
[10]; anhydrous solvents (20 vol), 20° C., 7 days
  form stability in solvent suspension (XRPD): resilient to prolonged solvent mediated treatments

## CC(C)(C)NC(=O)c1cc(NC(=O)Cc2cc(Cl)ccc2O)ccn1 [Form B (I) and Form B (II)]
[4]; 4 to 1 MeCN/Water (w/w), 3 days
  resulting solid (DSC) after competitive slurry ripening: Form B (I)

## CC(C)(C)NC(=O)c1cc(NC(=O)Cc2cc(Cl)ccc2O)ccn1 [Form A + Form F (1/1 w/w)]
[1]; 20 ° C.
  Output form (XRPD): Form A
